In ChEMBL document CHEMBL5614422, “Design, synthesis and biological evaluation of N-salicyloyl tryptamine derivatives as multifunctional neuroprotectants for the treatment of ischemic stroke” (Eur J Med Chem, 2024) one finds IC50, viability and Activity data, which are given here for three compounds.

Where only a bound is given, the exact number is not on record here.

For orientation: IC50 means the point on the concentration scale where inhibition reaches its midpoint.

Test system in the first data set: not listed separately
The data set is described as follows: Cytotoxicity against mouse HT-22 cells assessed as cell viability incubated for 24 hrs by CCK-8 method. Type of data set: toxicity, cell-based.
Conditions: not given
In general terms: Formazan colour is commonly taken as a measure of viable cells.
For `Cc1ccc(C(=O)NCCc2c[nH]c3cccc(Cl)c23)c(O)c1`, the IC50 at 24 h is over 100 µM.
Same read-out and setting: under `Cc1ccc(C(=O)NCCc2c[nH]c3cc4c(cc23)OCO4)c(O)c1` stands over 100 µM.
Turning to `COc1ccc(O)c(C(=O)NCCc2c[nH]c3ccccc23)c1`, the IC50 at 24 h was over 100 µM.

The next data set concerns HT-22. The data set can be described thus: Neuroprotective activity against OGD/R induced cell damage in mouse HT-22 cells assessed as cell viability at 10 uM measured after 24 hrs by MTT assay (reference value: 69.01 +/-2.90%). The data set is classed as functional. The settings on record: read-out: Activity.
`Cc1ccc(C(=O)NCCc2c[nH]c3cccc(Cl)c23)c(O)c1`: the viability at 10 µM was 71.1%.
Still for that read-out and setting: for `Cc1ccc(C(=O)NCCc2c[nH]c3cc4c(cc23)OCO4)c(O)c1` the value was 82.8%.
Turning to `COc1ccc(O)c(C(=O)NCCc2c[nH]c3ccccc23)c1`, the viability at 10 µM stood at 88.5%.

Test system in another data set: not listed separately
The data set is described as follows: Cytotoxicity against mouse BV-2 cells assessed as cell viability incubated for 24 hrs by CCK-8 method. The data set is classed as toxicity, cell-based.
Conditions: not given
For `Cc1ccc(C(=O)NCCc2c[nH]c3cccc(Cl)c23)c(O)c1`, the IC50 at 24 h came out at 89.1 µM.
As to `Cc1ccc(C(=O)NCCc2c[nH]c3cc4c(cc23)OCO4)c(O)c1`, the IC50 at 24 h came to 98.8 µM.
Same read-out and setting: for `COc1ccc(O)c(C(=O)NCCc2c[nH]c3ccccc23)c1` the value was 51 µM.

A further data set relates to HT-22. The data set is described as follows: Anti-apoptotic activity in OGD/R mouse HT-22 cells assessed as viable cells at 10 uM by annexin V-FITC and PI staining based flow cytometry analysis (reference value: 83.09%). Type of data set: functional. The settings on record: read-out: Activity. On the technique in general: In flow cytometry, cells or beads pass a laser one at a time.
`COc1ccc(O)c(C(=O)NCCc2c[nH]c3ccccc23)c1`: the viability at 10 µM was determined as 89.1%.

Another data set relates to HT-22. The data set is described as follows: Anti-apoptotic activity in OGD/R mouse HT-22 cells assessed as early apoptotic cells at 10 uM by annexin V-FITC and PI staining based flow cytometry analysis (reference value: 9.51%).
Conditions: not given
Type of data set: functional.
With `COc1ccc(O)c(C(=O)NCCc2c[nH]c3ccccc23)c1`, the Activity is 5.54%.

The next data set concerns HT-22. The data set is described as follows: Anti-apoptotic activity in OGD/R mouse HT-22 cells assessed as late apoptotic cells at 10 uM by annexin V-FITC and PI staining based flow cytometry analysis (reference value: 7.26%). Type of data set: functional.
Conditions: not given
As to `COc1ccc(O)c(C(=O)NCCc2c[nH]c3ccccc23)c1`, the Activity is recorded as 5.18%.

The test system of the next data set is HT-22. The data set is described as follows: Anti-apoptotic activity in OGD/R mouse HT-22 cells assessed as necrotic cells at 10 uM by annexin V-FITC and PI staining based flow cytometry analysis (reference value: 0.14%). Type of data set: functional.
Conditions: not given
With `COc1ccc(O)c(C(=O)NCCc2c[nH]c3ccccc23)c1`, the Activity worked out at 0.16%.
